Reference: the CheMixHub viscosity set

Experiment: xn = mol fraction of the nth substance listed

CC(=O)OC(C)C + Cc1ccc(C)cc1
viscosity [mPa·s], 101 kPa
Conditions	303.15 K	308.15 K	313.15 K
x1 = 0.0984	0.554	–	0.502
x1 = 0.2017	0.541	–	0.489
x1 = 0.3126	0.527	–	0.476
x1 = 0.4038	0.515	–	0.465
x1 = 0.5039	0.505	–	0.455
x1 = 0.6015	0.495	–	0.446
x1 = 0.7028	0.487	–	0.437
x1 = 0.8113	0.477	–	0.427
x1 = 0.9523	0.464	–	0.417
x2 = 0.1061	–	0.4401	–
x2 = 0.2201	–	0.4568	–
x2 = 0.2975	–	0.4636	–
x2 = 0.3892	–	0.4726	–
x2 = 0.4985	–	0.4819	–
x2 = 0.5821	–	0.4898	–
x2 = 0.696	–	0.5019	–
x2 = 0.7973	–	0.5123	–
x2 = 0.8976	–	0.5215	–

CCCC(=O)O + c1ccccc1
298.15 K, 101 kPa
Conditions	viscosity [mPa·s]
x1 = 0.04	0.612
x1 = 0.09	0.624
x1 = 0.14	0.639
x1 = 0.18	0.656
x1 = 0.37	0.747
x1 = 0.47	0.808
x1 = 0.57	0.903
x1 = 0.78	1.1

CC(=O)OCC(C)C + CCc1ccccc1
viscosity [mPa·s], 101 kPa
Conditions	x1 = 0.0948	x1 = 0.1767	x1 = 0.2601	x1 = 0.3586	x1 = 0.4735	x1 = 0.5727	x1 = 0.7004	x1 = 0.7989	x1 = 0.8805	x1 = 0.9463
303.15 K	0.596	0.597	0.599	0.602	0.606	0.61	0.616	0.623	0.63	0.635
313.15 K	0.527	0.528	0.529	0.53	0.534	0.539	0.545	0.552	0.559	0.569

C[N+](C)(C)C[C@H](O)CC(=O)[O-] + O=C1O[C@H]([C@@H](O)CO)C(O)=C1O
Conditions	viscosity [mPa·s]
298.15 K, 101.33 kPa, x2 = 0.7	423.5

CCCCBr + C1CCCCC1
308.15 K, 101 kPa
Conditions	viscosity [mPa·s]
x2 = 0.1017	0.5246
x2 = 0.2037	0.5305
x2 = 0.3038	0.5365
x2 = 0.4015	0.5458
x2 = 0.5006	0.5596
x2 = 0.5951	0.5789
x2 = 0.7004	0.6032
x2 = 0.8014	0.6338
x2 = 0.899	0.6799

CCCCNCCCC + CCCCCCCCO
viscosity [mPa·s], 101.33 kPa
Conditions	x1 = 0.0912	x1 = 0.1863	x1 = 0.2846	x1 = 0.3857	x1 = 0.4878	x1 = 0.5882	x1 = 0.6862	x1 = 0.7892	x1 = 0.8929
303.15 K	5.37	4.588	3.829	3.105	2.481	1.979	1.581	1.251	0.9852
313.15 K	3.865	3.336	2.812	2.336	1.921	1.569	1.277	1.026	0.827

CCOC(=O)C(=O)OCC + ClC(Cl)(Cl)Cl
303.15 K, 101 kPa
Conditions	viscosity [mPa·s]
x1 = 0.0736	0.915
x1 = 0.1516	0.997
x1 = 0.2345	1.074
x1 = 0.3227	1.155
x1 = 0.4171	1.24
x1 = 0.5177	1.323
x1 = 0.6259	1.402
x1 = 0.7414	1.482
x1 = 0.8658	1.574

COCCO + CC(C)(C)O
Conditions	viscosity [mPa·s]
303.15 K, 101.3 kPa, x1 = 0.1011	2.892
303.15 K, 101.3 kPa, x1 = 0.1977	2.538
303.15 K, 101.3 kPa, x1 = 0.2694	2.324
303.15 K, 101.3 kPa, x1 = 0.3774	2.043
303.15 K, 101.3 kPa, x1 = 0.4851	1.831
303.15 K, 101.3 kPa, x1 = 0.6774	1.579
303.15 K, 101.3 kPa, x1 = 0.745	1.523
303.15 K, 101.3 kPa, x1 = 0.849	1.456
303.15 K, 101.3 kPa, x1 = 0.9028	1.427
308.15 K, 101.33 kPa, x1 = 0.119	2.241
308.15 K, 101.33 kPa, x1 = 0.2504	1.929
308.15 K, 101.33 kPa, x1 = 0.3687	1.713
308.15 K, 101.33 kPa, x1 = 0.5096	1.527
308.15 K, 101.33 kPa, x1 = 0.6441	1.402
308.15 K, 101.33 kPa, x1 = 0.7218	1.35
308.15 K, 101.33 kPa, x1 = 0.8035	1.298
308.15 K, 101.33 kPa, x1 = 0.9026	1.242

CCCC(=O)O + CC(C)=O
viscosity [mPa·s], 101 kPa
Conditions	x1 = 0.0996	x1 = 0.1883	x1 = 0.3023	x1 = 0.3759	x1 = 0.5144	x1 = 0.5977	x1 = 0.7009	x1 = 0.7989	x1 = 0.9016	x1 = 0.9275
298.15 K	0.3862	0.4576	0.5666	0.6477	0.8181	0.9307	1.071	1.216	1.361	1.408
308.15 K	0.351	0.4131	0.5047	0.5741	0.7153	0.8095	0.9246	1.041	1.158	1.197
318.15 K	0.3183	0.3666	0.4489	0.5135	0.6265	0.7078	0.7969	0.8942	0.9947	1.018

CCCCNCCCC + CCCO
viscosity [mPa·s], 101.33 kPa
Conditions	x1 = 0.0988	x1 = 0.1893	x1 = 0.3012	x1 = 0.4041	x1 = 0.4964	x1 = 0.59	x1 = 0.693	x1 = 0.7809	x1 = 0.8947
303.15 K	1.681	1.564	1.404	1.276	1.176	1.084	0.9942	0.9209	0.832
313.15 K	1.309	1.228	1.123	1.03	0.9494	0.8887	0.8255	0.7761	0.7157

COCCO + CCCCCCO
viscosity [mPa·s], 101 kPa
Conditions	x1 = 0.1298	x1 = 0.2513	x1 = 0.3653	x1 = 0.4723	x1 = 0.5731	x1 = 0.6682	x1 = 0.758	x1 = 0.843	x1 = 0.9236
298.15 K	3.765	3.225	2.811	2.458	2.25	2.076	1.94	1.815	1.707
308.15 K	2.612	2.233	2.027	1.815	1.667	1.487	1.356	1.303	1.273
318.15 K	2.193	1.908	1.648	1.477	1.356	1.278	1.211	1.129	1.083

FC(F)(Cl)Cl + CC(F)F
101 kPa, x1 = 0.606
Conditions	viscosity [mPa·s]
295.47 K	0.199
311.17 K	0.1745

CCCC(=O)O + NC=O
viscosity [mPa·s], 101 kPa
Conditions	x1 = 0.1043	x1 = 0.2044	x1 = 0.3013	x1 = 0.4031	x1 = 0.5027	x1 = 0.5996	x1 = 0.7011	x1 = 0.799	x1 = 0.857	x1 = 0.951
298.15 K	2.333	3.534	5.24	7.11	8.41	9.33	9.17	8.51	7.33	4.986
313.15 K	1.734	2.563	3.461	4.456	5.37	5.8	5.8	5.54	4.779	3.252

CCCCNCCCC + CCO
viscosity [mPa·s], 101.33 kPa
Conditions	x1 = 0.1169	x1 = 0.2094	x1 = 0.3171	x1 = 0.3921	x1 = 0.4922	x1 = 0.6159	x1 = 0.712	x1 = 0.7802	x1 = 0.8995
303.15 K	1.107	1.126	1.099	1.065	1.008	0.9427	0.8965	0.8625	0.8089
313.15 K	0.9037	0.9066	0.8803	0.8493	0.8109	0.766	0.7426	0.7261	0.6965
